From US4147861A, “1N-(α-Hydroxy-ω-aminoalkanoyl)- 6'N-methyl-3',4'-dideoxykanamycin B and the production thereof” (Zaidan Hojin Biseibutsu Kagaku Kenkyu Kai, priority 1977, dated 1979)
≈ marks a conversion by molar mass, not a printed value. Like-named read-outs stand apart in the source and are kept apart here.

Legend:
[1] = tested on: Mycobacterium smegmatis ATCC 607; experiment: Minimum inhibitory concentration, serial dilution method on nutrient agar; assay type: cell-based; conditions: Mycolicibacterium smegmatis, ATCC607, 37° C., 18 hours, read-out: Minimum Inhibitory Concentrations
Sarcina lutea PCI 1001 = experiment: as above; assay type: cell-based; conditions: Micrococcus luteus, PCI1001, 18 h, read-out: Minimum Inhibitory Concentrations
[2] = tested on: Escherichia coli LA290 R56; experiment: as above; assay type: cell-based; conditions: LA290R56, 18 h, read-out: Minimum Inhibitory Concentrations
[3] = tested on: Klebsiella pneumoniae PCT 602; experiment: as above; assay type: cell-based; conditions: read-out: Minimum Inhibitory Concentrations
[4] = tested on: Corynebacterium bovis 1810; experiment: as above; assay type: cell-based; conditions: Corynebacterium bovis, 1810, 18 h, read-out: Minimum Inhibitory Concentrations
[5] = tested on: Bacillus cereus ATCC 10702; experiment: as above; assay type: cell-based; conditions: Bacillus cereus, ATCC10702, 18 h, read-out: Minimum Inhibitory Concentrations
[6] = tested on: Bacillus subtilis NRRL B-558; experiment: as above; assay type: cell-based; conditions: NRRLB558, 37° C., 18 hours, read-out: Minimum Inhibitory Concentrations
[7] = tested on: Staphylococcus aureus FDA 209P; experiment: as above; assay type: cell-based; conditions: FDA209P, 37° C., 18 hours, read-out: Minimum Inhibitory Concentrations
Bacillus anthracis = experiment: microbe, parasite or virus in culture; assay type: cell-based; conditions: 18 h, read-out: Minimum Inhibitory Concentrations
Escherichia coli K-12 R5 = experiment: Minimum inhibitory concentration, serial dilution method on nutrient agar; assay type: cell-based; conditions: K12R5, 18 h, read-out: Minimum Inhibitory Concentrations
[8] = tested on: Bacillus subtilis PCI 219; experiment: as above; assay type: cell-based; conditions: PCI219, 37° C., 18 hours, read-out: Minimum Inhibitory Concentrations
[9] = tested on: Escherichia coli K-12 ML 1410 R81; experiment: as above; assay type: cell-based; conditions: 18 h, read-out: Minimum Inhibitory Concentrations
[10] = tested on: Escherichia coli LA290 R55; experiment: as above; assay type: cell-based; conditions: LA290R55, 18 h, read-out: Minimum Inhibitory Concentrations
Escherichia coli K-12 = experiment: as above; assay type: cell-based; conditions: read-out: Minimum Inhibitory Concentrations
Escherichia coli NIHJ = experiment: as above; assay type: cell-based; conditions: read-out: Minimum Inhibitory Concentrations
[11] = tested on: Pseudomonas aeruginosa 99; experiment: as above; assay type: cell-based; conditions: 37° C., 18 hours, read-out: Minimum Inhibitory Concentrations
Shigella sonnei JS 11746 = experiment: as above; assay type: cell-based; conditions: JS11746, 37° C., 18 hours, read-out: Minimum Inhibitory Concentrations
Experimental: (§1) The minimum inhibitory concentrations (mcg./ml.) of 1N-(DL-isoseryl)-6'N-methyl-3',4'-dideoxykanamycin B (abbreviated as DL-IS-MDKB); 1N-(L-isoseryl)-6'N-methyl-3',4'-dideoxykanamycin B (abbreviated as L-IS-MDKB); 1N-(L-4-amino-[…])-6'N-methyl-3',4'-dideoxykanamycin B (abbreviated as AHB-MDKB); and 1N-(L-5-amino-2-hydroxyvaleryl)-6'N-methyl-3',4'-dideoxykanamycin B (abbreviated as AHV-MDBK) against various organisms were determined according to serial dilution method using nutrient agar medium at 37° C., the readings being made after 18 hours incubation. For the comparison purpose, the minimum inhibitory concentrations (mcg./ml.) of 1 N-(L-4-amino-2-hydroxybutyryl)-kanamycin A (abbreviated as AHB-KMA) and 1N-([…])-kanamycin B (abbreviated as AHB-KMB) which are known from U.S. Pat. No. 3,781,268 were also determined by the same manner as stated above.

[12] = tested on: Klebsiella pneumoniae 22 No. 3038; experiment: as above; assay type: cell-based; conditions: 37° C., 18 hours, read-out: Minimum Inhibitory Concentrations
Experimental: as §1

[13] = tested on: Escherichia coli K-12 ML 1630; experiment: as above; assay type: cell-based; conditions: K12ML1630, 37° C., 18 hours, read-out: Minimum Inhibitory Concentrations
Experimental: as §1

[14] = tested on: Pseudomonas aeruginosa A3; experiment: as above; assay type: cell-based; conditions: 37° C., 18 hours, read-out: Minimum Inhibitory Concentrations
Experimental: as §1

[15] = tested on: Shigella flexneri 4b JS 11811; experiment: as above; assay type: cell-based; conditions: 4BJS11811, 37° C., 18 hours, read-out: Minimum Inhibitory Concentrations
Experimental: as §1

Staphylococcus aureus = experiment: as above; assay type: cell-based; conditions: 37° C., 18 hours, read-out: Minimum Inhibitory Concentrations
Escherichia coli W677 = experiment: as above; assay type: cell-based; conditions: read-out: Minimum Inhibitory Concentrations
[16] = tested on: Pseudomonas aeruginosa GN315; experiment: as above; assay type: cell-based; conditions: read-out: Minimum Inhibitory Concentrations
[17] = tested on: Escherichia coli JR66/W677; experiment: as above; assay type: cell-based; conditions: Escherichia coli, JR66/W677, 18 h, read-out: Minimum Inhibitory Concentrations
[18] = tested on: Shigella dysenteriae JS 11910; experiment: as above; assay type: cell-based; conditions: JS11910, 18 h, read-out: Minimum Inhibitory Concentrations
[19] = tested on: Escherichia coli K-12 ML 1410; experiment: as above; assay type: cell-based; conditions: read-out: Minimum Inhibitory Concentrations
[20] = tested on: Salmonella enteritidis 1891; experiment: as above; assay type: cell-based; conditions: Salmonella enterica, read-out: Minimum Inhibitory Concentrations
Proteus vulgaris OX 19 = experiment: as above; assay type: cell-based; conditions: read-out: Minimum Inhibitory Concentrations
[21] = tested on: Staphylococcus aureus Terajima; experiment: as above; assay type: cell-based; conditions: 37° C., 18 hours, read-out: Minimum Inhibitory Concentrations
[22] = tested on: Escherichia coli LA290 R64; experiment: as above; assay type: cell-based; conditions: LA290R64, 18 h, read-out: Minimum Inhibitory Concentrations
[23] = tested on: Pseudomonas aeruginosa No. 12; experiment: as above; assay type: cell-based; conditions: Pseudomonas aeruginosa, NO.12, 18 h, read-out: Minimum Inhibitory Concentrations
[24] = tested on: Escherichia coli K-12 ML 1629; experiment: as above; assay type: cell-based; conditions: read-out: Minimum Inhibitory Concentrations
[25] = tested on: Pseudomonas aeruginosa TI-13; experiment: as above; assay type: cell-based; conditions: read-out: Minimum Inhibitory Concentrations
Salmonella typhosa T-63 = experiment: as above; assay type: cell-based; conditions: Salmonella enterica, 18 h, read-out: Minimum Inhibitory Concentrations
[26] = tested on: kanamycin-resistant bacteria; conditions: prior art statement; cited from earlier work

Compound: CNC[C@@H]1CC[C@@H](N)[C@@H](O[C@H]2[C@H](O)[C@@H](O[C@H]3O[C@H](CO)[C@@H](O)[C@H](N)[C@H]3O)[C@H](NC(=O)C(O)CN)C[C@@H]2N)O1 (mixture of isomers) [DL-IS-MDKB, 1N-(DL-isoseryl)-6'N-methyl-3',4'-dideoxykanamycin B]
- MIC [1]: 0.39 µg/mL
- MIC (Sarcina lutea PCI 1001): 6.25 µg/mL
- MIC [2]: 0.78 µg/mL
- MIC ([3]; Klebsiella pneumoniae, PCT602, 18 h): 1.56 µg/mL
- MIC [4]: 3.13 µg/mL
- MIC [5]: 3.13 µg/mL
- MIC [6]: < 0.2 µg/mL
- MIC [7]: 0.78 µg/mL
- MIC (Bacillus anthracis): < 0.2 µg/mL
- MIC (Escherichia coli K-12 R5): 3.13 µg/mL
- MIC [8]: < 0.2 µg/mL
- MIC [9]: 3.13 µg/mL
- MIC [10]: 3.13 µg/mL
- MIC (Escherichia coli K-12; Escherichia coli, K12, 18 h): 1.56 µg/mL
- MIC (Escherichia coli NIHJ; Escherichia coli, 18 h): 1.56 µg/mL
- MIC [11]: 25 µg/mL
- MIC (Shigella sonnei JS 11746): 3.13 µg/mL
- MIC [12]: 3.13 µg/mL
- MIC [13]: 3.13 µg/mL
- MIC [14]: 3.13 µg/mL
- MIC [15]: 3.13 µg/mL
- MIC (Staphylococcus aureus): < 0.2 µg/mL
- MIC (Escherichia coli W677; Escherichia coli, W677, 18 h): 1.56 µg/mL
- MIC ([16]; Pseudomonas aeruginosa GN315, 37° C., 18 hours): 12.5 µg/mL
- MIC [17]: 3.13 µg/mL
- MIC [18]: 6.25 µg/mL
- MIC ([19]; Escherichia coli, K12ML1410, 18 h): 3.13 µg/mL
- MIC ([20]; ENTERITIDIS, 18 h): 3.13 µg/mL
- MIC (Proteus vulgaris OX 19; Proteus vulgaris, OX19, 18 h): 1.56 µg/mL
- MIC [21]: < 0.2 µg/mL
- MIC [22]: 0.78 µg/mL
- MIC [23]: 6.25 µg/mL
- MIC ([24]; Escherichia coli, K12ML1629, 18 h): 1.56 µg/mL
- MIC ([25]; TI13, Pseudomonas aeruginosa TI-13, 37° C., 18 hours): 12.5 µg/mL
- MIC (Salmonella typhosa T-63): 1.56 µg/mL

Compound: NC[C@@H]1CC[C@@H](N)[C@@H](O[C@H]2[C@H](O)[C@@H](O[C@H]3O[C@H](CO)[C@@H](O)[C@H](N)[C@H]3O)[C@H](N)C[C@@H]2N)O1 [3',4'-dideoxykanamycin B, 3',4'-Dideoxykanamycin B]
- activity against kanamycin-resistant bacteria [26]: active against a large number of kanamycin-resistant bacteria

Compound: CNC[C@@H]1CC[C@@H](N)[C@@H](O[C@H]2[C@H](O)[C@@H](O[C@H]3O[C@H](CO)[C@@H](O)[C@H](N)[C@H]3O)[C@H](N)C[C@@H]2N)O1 [6'N-methyl-3',4'-dideoxykanamycin B, 6'N-Methyl-3',4'-dideoxykanamycin B]
- activity against kanamycin-resistant bacteria [26]: active against a large number of kanamycin-resistant bacteria

Compound: NCC[C@H](O)C(=O)N[C@@H]1C[C@H](N)[C@@H](O[C@H]2O[C@H](CN)[C@@H](O)[C@H](O)[C@H]2N)[C@H](O)[C@H]1O[C@H]1O[C@H](CO)[C@@H](O)[C@H](N)[C@H]1O [AHB-KMB, 1N-(L-4-amino-2-hydroxybutyryl)kanamycin B]
- activity against kanamycin-resistant bacteria [26]: active against a large number of kanamycin-resistant bacteria

Compound: CNC[C@@H]1CC[C@@H](N)[C@@H](O[C@H]2[C@H](O)[C@@H](O[C@H]3O[C@H](CO)[C@@H](O)[C@H](N)[C@H]3O)[C@H](NC(=O)[C@@H](O)CCN)C[C@@H]2N)O1 [AHB-MDKB, 1N-(L-4-amino-2-hydroxybutyryl)-6'N-methyl-3',4'-dideoxykanamycin B]
- MIC [1]: 0.2 µg/mL (≈ 0.353 µM)
- MIC (Sarcina lutea PCI 1001): 3.13 µg/mL (≈ 5.52 µM)
- MIC [2]: 0.78 µg/mL (≈ 1.38 µM)
- MIC ([3]; PCT602, Klebsiella pneumoniae PCT 602, 37° C., 18 hours): 0.78 µg/mL (≈ 1.38 µM)
- MIC [4]: 3.13 µg/mL (≈ 5.52 µM)
- MIC [5]: 3.13 µg/mL (≈ 5.52 µM)
- MIC [6]: < 0.2 µg/mL
- MIC [7]: 0.78 µg/mL (≈ 1.38 µM)
- MIC (Bacillus anthracis): < 0.2 µg/mL
- MIC (Escherichia coli K-12 R5): 1.56 µg/mL (≈ 2.75 µM)
- MIC [8]: < 0.2 µg/mL
- MIC [10]: 0.78 µg/mL (≈ 1.38 µM)
- MIC (Escherichia coli K-12; K12, Escherichia coli K-12, 37° C., 18 hours): 0.78 µg/mL (≈ 1.38 µM)
- MIC (Escherichia coli NIHJ; Escherichia coli NIHJ, 37° C., 18 hours): 1.56 µg/mL (≈ 2.75 µM)
- MIC [11]: 25 µg/mL (≈ 44.1 µM)
- MIC (Shigella sonnei JS 11746): 6.25 µg/mL (≈ 11 µM)
- MIC [12]: 3.13 µg/mL (≈ 5.52 µM)
- MIC [13]: 0.78 µg/mL (≈ 1.38 µM)
- MIC [14]: 3.13 µg/mL (≈ 5.52 µM)
- MIC [15]: 3.13 µg/mL (≈ 5.52 µM)
- MIC (Staphylococcus aureus): < 0.2 µg/mL
- MIC (Escherichia coli W677; Escherichia coli W677, 37° C., 18 hours): 0.78 µg/mL (≈ 1.38 µM)
- MIC ([16]; Pseudomonas aeruginosa, GN315, 18 h): 6.25 µg/mL (≈ 11 µM)
- MIC [17]: 3.13 µg/mL (≈ 5.52 µM)
- MIC [18]: 3.13 µg/mL (≈ 5.52 µM)
- MIC ([19]; K12ML1410, Escherichia coli K-12 ML 1410, 37° C., 18 hours): 1.56 µg/mL (≈ 2.75 µM)
- MIC ([20]; Salmonella enteritidis 1891, 37° C., 18 hours): 1.56 µg/mL (≈ 2.75 µM)
- MIC (Proteus vulgaris OX 19; OX19, Proteus vulgaris OX 19, 37° C., 18 hours): 1.56 µg/mL (≈ 2.75 µM)
- MIC [21]: < 0.2 µg/mL
- MIC [22]: 0.78 µg/mL (≈ 1.38 µM)
- MIC [23]: 3.13 µg/mL (≈ 5.52 µM)
- MIC ([24]; K12ML1629, Escherichia coli K-12 ML 1629, 37° C., 18 hours): 1.56 µg/mL (≈ 2.75 µM)
- MIC ([25]; Pseudomonas aeruginosa, TI13, 18 h): 6.25 µg/mL (≈ 11 µM)
- MIC (Salmonella typhosa T-63): 3.13 µg/mL (≈ 5.52 µM)
